Molecular target: T1, human URAT1 (Homo sapiens, UniProt Q96S37)
T1 construct: Full-length cDNA of human URAT1 (hURAT1)
T1 sequence (Q96S37 1-553): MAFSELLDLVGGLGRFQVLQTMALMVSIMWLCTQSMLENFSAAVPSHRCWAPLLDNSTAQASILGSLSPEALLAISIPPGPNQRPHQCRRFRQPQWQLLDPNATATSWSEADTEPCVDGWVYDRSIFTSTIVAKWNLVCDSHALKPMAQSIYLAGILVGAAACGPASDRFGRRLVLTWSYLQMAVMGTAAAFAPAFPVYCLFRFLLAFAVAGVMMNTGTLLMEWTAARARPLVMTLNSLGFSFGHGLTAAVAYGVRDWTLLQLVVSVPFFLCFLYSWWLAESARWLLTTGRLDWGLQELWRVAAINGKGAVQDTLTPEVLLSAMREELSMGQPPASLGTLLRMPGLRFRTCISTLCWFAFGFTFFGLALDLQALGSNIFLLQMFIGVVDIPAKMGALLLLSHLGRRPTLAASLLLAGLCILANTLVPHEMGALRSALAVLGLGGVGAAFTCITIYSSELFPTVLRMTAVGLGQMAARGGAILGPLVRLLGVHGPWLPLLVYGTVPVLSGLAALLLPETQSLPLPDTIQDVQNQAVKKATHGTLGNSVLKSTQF
Experiment: Test for inhibition of uric acid transport using human URAT1-expressing cells;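 note: three stars up to 0.2 µM two stars 0.2-2 µM one star 2-20 µM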
Format: cell-based
Conditions: HEK 293 cells expressing human URAT1, 14C-labeled uric acid 25 μM, uptake 37° C. for 5 min; for IC50: read-out: Inhibitory Activity (IC50 of uric acid transport inhibition)
Procedure, shortened: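 IC50 values reflect inhibition of ¹⁴C-uric acid uptake (25 μM final, 5 min, 37 °C) by compound. Cells were HEK293 stably expressing full-length human URAT1, preincubated in Na-gluconate-substituted HBSS. Radioactivity in lysates was expressed relative to DMSO control as 100%.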

| Compound | IC50 | Inhibitory Activity (IC50 of uric acid transport inhibition) |
| --- | --- | --- |
| Cc1nc(-c2cccnc2)n(Cc2cc(Cl)ccc2Cl)c1C(=O)NS(=O)(=O)C1CC1 [Compound A112] | 2 to 20 µM | – |
| Cc1nc(-c2cccnc2)n(Cc2cccc3ccsc23)c1C(=O)NS(C)(=O)=O [Compound A115] | 2 to 20 µM | – |
| Cc1nc(-c2cccnc2)n(Cc2cccc3ccsc23)c1C(=O)NS(=O)(=O)C1CC1 [Compound A116] | 2 to 20 µM | – |
| CS(=O)(=O)NC(=O)c1c(C2CC2)nc(-c2cccnc2)n1Cc1cccc2ccsc12 [Compound A117, 1-(benzo[b]thiophen-7-ylmethyl)-4-cyclopropyl-N-(methylsulfonyl)-2-(pyridin-3-yl)-1H-imidazole-5-carboxamide] | – | * * |
| O=C(NS(=O)(=O)C1CC1)c1c(C2CC2)nc(-c2cccnc2)n1Cc1cccc2ccsc12 [Compound A118, 1-(benzo[b]thiophen-7-ylmethyl)-4-cyclopropyl-N-(cyclopropylsulfonyl)-2-(pyridin-3-yl)-1H-imidazole-5-carboxamide] | – | * * |
| COc1cncc(-c2nc(C)c(C(=O)O)n2Cc2cccc3ccccc23)c1 [Compound A120] | 2 to 20 µM | – |
| Cc1cncc(-c2nc(C)c(C(=O)O)n2Cc2cccc3ccccc23)c1 [Compound A124] | 2 to 20 µM | – |
| COc1ncccc1-c1nc(C)c(C(=O)O)n1Cc1cccc2ccccc12 [Compound A125] | 2 to 20 µM | – |
| Cc1nc(-c2cncc(Oc3ccccc3)c2)n(Cc2cccc3ccccc23)c1C(=O)O [Compound A130, 4-methyl-1-(naphthalen-1-ylmethyl)-2-(5-phenoxypyridin-3-yl)-1H-imidazole-5-carboxylic acid] | – | * * |
| COc1ccccc1Oc1cncc(-c2nc(C)c(C(=O)O)n2Cc2cccc3ccccc23)c1 [Compound A131] | 2 to 20 µM | – |
| Cc1nc(-c2cncc(Cl)c2)n(Cc2csc3ccccc23)c1C(=O)O [Compound A132, 1-(benzo[b]thiophen-3-ylmethyl)-2-(5-chloropyridin-3-yl)-4-methyl-1H-imidazole-5-carboxylic acid] | – | * * |
| Cc1nc(-c2cncc(F)c2)n(Cc2csc3ccccc23)c1C(=O)O [Compound A133, 1-(benzo[b]thiophen-3-ylmethyl)-2-(5-fluoropyridin-3-yl)-4-methyl-1H-imidazole-5-carboxylic acid] | – | * * |
| O=C(O)c1c(C(F)(F)F)nc(-c2cncc(F)c2)n1Cc1cc(Cl)ccc1Cl [Compound A136, 1-(2,5-dichlorobenzyl)-2-(5-fluoropyridin-3-yl)-4-(trifluoromethyl)-1H-imidazole-5-carboxylic acid] | – | * * * |
| Cc1nc(-c2cncc(C(F)(F)F)c2)n(Cc2cccc3ccccc23)c1C(=O)O [Compound A138, 4-methyl-1-(naphthalen-1-ylmethyl)-2-(5-(trifluoromethyl)pyridin-3-yl)-1H-imidazole-5-carboxylic acid] | – | * * |
| O=C(O)c1c(C(F)(F)F)nc(-c2cncc(C(F)(F)F)c2)n1Cc1cc(Cl)ccc1Cl [Compound A140, 1-(2,5-dichlorobenzyl)-4-(trifluoromethyl)-2-(5-(trifluoromethyl)pyridin-3-yl)-1H-imidazole-5-carboxylic acid] | – | * * * |
| Cc1nc(-c2cncc(F)c2)n(Cc2csc3cccc(Cl)c23)c1C(=O)O [Compound A141, 1-((4-chlorobenzo[b]thiophen-3-yl)methyl)-2-(5-fluoropyridin-3-yl)-4-methyl-1H-imidazole-5-carboxylic acid] | – | * * |
| Cc1nc(-c2cncc(Cl)c2)n(Cc2csc3cccc(Cl)c23)c1C(=O)O [Compound A142, 1-((4-chlorobenzo[b]thiophen-3-yl)methyl)-2-(5-chloropyridin-3-yl)-4-methyl-1H-imidazole-5-carboxylic acid] | – | * * * |

| Compound | IC50 | Inhibitory Activity (IC50 of uric acid transport inhibition) |
| --- | --- | --- |
| Cc1nc(-c2cncc(C(F)(F)F)c2)n(Cc2csc3cccc(Cl)c23)c1C(=O)O [Compound A143, 1-((4-chlorobenzo[b]thiophen-3-yl)methyl)-4-methyl-2-(5-(trifluoromethyl)pyridin-3-yl)-1H-imidazole-5-carboxylic acid] | – | * * * |
| CC(C)c1nc(-c2cncc(Cl)c2)n(Cc2cccc3ccccc23)c1C(=O)O [Compound A144, 2-(5-chloropyridin-3-yl)-4-isopropyl-1-(naphthalen-1-ylmethyl)-1H-imidazole-5-carboxylic acid] | – | * * * |
| O=C(O)c1c(C2CC2)nc(-c2cncc(Cl)c2)n1Cc1cccc2ccccc12 [Compound A145, 2-(5-chloropyridin-3-yl)-4-cyclopropyl-1-(naphthalen-1-ylmethyl)-1H-imidazole-5-carboxylic acid] | – | * * * |
| CC(C)c1nc(-c2cncc(Cl)c2)n(Cc2cc(Cl)ccc2Cl)c1C(=O)O [Compound A146, 2-(5-chloropyridin-3-yl)-1-(2,5-dichlorobenzyl)-4-isopropyl-1H-imidazole-5-carboxylic acid] | – | * * * |
| CCc1nc(-c2cncc(F)c2)n(Cc2cccc3ccccc23)c1C(=O)O [Compound A148, 4-ethyl-2-(5-fluoropyridin-3-yl)-1-(naphthalen-1-ylmethyl)-1H-imidazole-5-carboxylic acid] | – | * * |
| CCc1nc(-c2cncc(Cl)c2)n(Cc2cccc3ccccc23)c1C(=O)O [Compound A149, 2-(5-chloropyridin-3-yl)-4-ethyl-1-(naphthalen-1-ylmethyl)-1H-imidazole-5-carboxylic acid] | – | * * * |
| CCc1nc(-c2cncc(F)c2)n(Cc2cc(Cl)ccc2Cl)c1C(=O)O [Compound A150, 1-(2,5-dichlorobenzyl)-4-ethyl-2-(5-fluoropyridin-3-yl)-1H-imidazole-5-carboxylic acid] | – | * * * |
| CCc1nc(-c2cncc(Cl)c2)n(Cc2cc(Cl)ccc2Cl)c1C(=O)O [Compound A151, 2-(5-chloropyridin-3-yl)-1-(2,5-dichlorobenzyl)-4-ethyl-1H-imidazole-5-carboxylic acid] | – | * * * |
| CC(C)c1nc(-c2cncc(F)c2)n(Cc2cccc3ccccc23)c1C(=O)O [Compound A152, 2-(5-fluoropyridin-3-yl)-4-isopropyl-1-(naphthalen-1-ylmethyl)-1H-imidazole-5-carboxylic acid] | – | * * |
| O=C(O)c1c(C2CC2)nc(-c2cncc(F)c2)n1Cc1cccc2ccccc12 [Compound A153, 4-cyclopropyl-2-(5-fluoropyridin-3-yl)-1-(naphthalen-1-ylmethyl)-1H-imidazole-5-carboxylic acid] | – | * * |
| CC(C)c1nc(-c2cncc(F)c2)n(Cc2cc(Cl)ccc2Cl)c1C(=O)O [Compound A154, 1-(2,5-dichlorobenzyl)-2-(5-fluoropyridin-3-yl)-4-isopropyl-1H-imidazole-5-carboxylic acid] | – | * * * |
| O=C(O)c1c(C2CC2)nc(-c2cncc(F)c2)n1Cc1cc(Cl)ccc1Cl [Compound A155, 4-cyclopropyl-1-(2,5-dichlorobenzyl)-2-(5-fluoropyridin-3-yl)-1H-imidazole-5-carboxylic acid] | – | * * * |
| COc1cncc(-c2nc(C)c(C(=O)O)n2Cc2cc(Cl)ccc2Cl)c1 [Compound A157, 1-(2,5-dichlorobenzyl)-2-(5-methoxypyridin-3-yl)-4-methyl-1H-imidazole-5-carboxylic acid] | – | * * * |
| Cc1nc(-c2cncc(C#N)c2)n(Cc2cc(Cl)ccc2Cl)c1C(=O)O [Compound A158, 2-(5-cyanopyridin-3-yl)-1-(2,5-dichlorobenzyl)-4-methyl-1H-imidazole-5-carboxylic acid] | – | * * |
| Cc1ccc(-c2nc(C)c(C(=O)O)n2Cc2cc(Cl)ccc2Cl)cn1 [Compound A159, 1-(2,5-dichlorobenzyl)-4-methyl-2-(6-methylpyridin-3-yl)-1H-imidazole-5-carboxylic acid] | – | * * |
| Cc1nc(-c2cccnc2F)n(Cc2cc(Cl)ccc2Cl)c1C(=O)O [Compound A160, 1-(2,5-dichlorobenzyl)-2-(2-fluoropyridin-3-yl)-4-methyl-1H-imidazole-5-carboxylic acid] | – | * * |
| COc1ccc(-c2nc(C)c(C(=O)O)n2Cc2cc(Cl)ccc2Cl)cn1 [Compound A161, 1-(2,5-dichlorobenzyl)-2-(6-methoxypyridin-3-yl)-4-methyl-1H-imidazole-5-carboxylic acid] | – | * * |
